Test results taken from ChEMBL document CHEMBL3259572, “Euodenine A: a small-molecule agonist of human TLR4” (J Med Chem, 2014).
Activity calls are given as the source filed them. The calls are words filed in the database; no cut-off is given here.

What was measured:
TLR2/TLR6 (Homo sapiens) = TLR2/TLR6 (Homo sapiens) (UniProt O60603+Q9Y2C9); experiment: Agonist activity at human recombinant TLR2/6 expressed in HEK293 cells at 10 uM by SEAP reporter assay; type: cell-based
[1] = Cytotoxicity against human PBMC by WST-1 cell proliferation assay; type: cell-based; conditions: PBMC (peripheral blood mononuclear cells)
Toll-like receptor 4 = Toll-like receptor 4 (Homo sapiens, UniProt O00206); experiment: Agonist activity at chimeric extracellular domain of human TLR4 fused with human intracellular domain expressed in HEK293 cells by NFkappaB reporter assay; type: cell-based
[2] = biological target: Toll-like receptor 5 (Homo sapiens) (UniProt O60602); experiment: Agonist activity at human recombinant TLR5 expressed in HEK293 cells at 10 uM by SEAP reporter assay; type: cell-based
PBMC [3] = experiment: Induction of IL-10 production in human PBMC at 10 uM by ELISA; type: functional, cell-based
PBMC [4] = experiment: Induction of TNFalpha production in human PBMC at 10 uM by ELISA; type: functional, cell-based
PBMC [5] = experiment: Suppression of PHA-induced IL-5 release in human PBMC at 10 uM by ELISA; type: functional, cell-based
[6] = biological target: T1, Toll-like receptor 9 (Homo sapiens) (UniProt Q9NR96); experiment: Agonist activity at human recombinant TLR9 expressed in HEK293 cells at 10 uM by SEAP reporter assay; type: cell-based
T1 sequence (whole entry): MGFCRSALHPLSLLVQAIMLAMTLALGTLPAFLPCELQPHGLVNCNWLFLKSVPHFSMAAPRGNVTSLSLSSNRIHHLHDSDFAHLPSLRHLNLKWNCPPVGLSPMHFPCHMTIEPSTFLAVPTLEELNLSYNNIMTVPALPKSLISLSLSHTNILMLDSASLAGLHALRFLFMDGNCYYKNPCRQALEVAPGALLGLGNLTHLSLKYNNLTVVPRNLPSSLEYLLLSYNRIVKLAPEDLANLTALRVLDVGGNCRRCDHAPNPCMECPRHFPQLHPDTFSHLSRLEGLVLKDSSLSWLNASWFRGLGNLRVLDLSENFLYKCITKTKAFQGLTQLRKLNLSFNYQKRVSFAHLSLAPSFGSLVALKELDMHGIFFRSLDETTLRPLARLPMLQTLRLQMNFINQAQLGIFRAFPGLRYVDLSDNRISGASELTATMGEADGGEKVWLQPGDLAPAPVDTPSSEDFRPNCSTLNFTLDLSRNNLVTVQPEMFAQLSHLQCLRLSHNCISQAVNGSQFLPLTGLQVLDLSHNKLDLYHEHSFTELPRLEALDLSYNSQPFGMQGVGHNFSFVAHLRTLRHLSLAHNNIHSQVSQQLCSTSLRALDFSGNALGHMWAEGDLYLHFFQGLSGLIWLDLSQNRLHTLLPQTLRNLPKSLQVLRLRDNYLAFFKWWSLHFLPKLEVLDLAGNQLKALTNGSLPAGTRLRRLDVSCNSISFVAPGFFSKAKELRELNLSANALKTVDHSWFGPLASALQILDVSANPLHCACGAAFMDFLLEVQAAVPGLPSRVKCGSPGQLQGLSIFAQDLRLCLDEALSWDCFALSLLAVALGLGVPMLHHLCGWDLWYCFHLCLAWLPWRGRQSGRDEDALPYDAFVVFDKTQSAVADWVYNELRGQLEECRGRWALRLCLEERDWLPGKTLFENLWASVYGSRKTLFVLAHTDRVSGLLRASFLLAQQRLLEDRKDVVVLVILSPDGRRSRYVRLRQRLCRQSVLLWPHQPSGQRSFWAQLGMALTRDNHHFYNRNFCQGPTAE

Toll-like receptor 4, sequence (O00206 whole entry, the tested form may be a part): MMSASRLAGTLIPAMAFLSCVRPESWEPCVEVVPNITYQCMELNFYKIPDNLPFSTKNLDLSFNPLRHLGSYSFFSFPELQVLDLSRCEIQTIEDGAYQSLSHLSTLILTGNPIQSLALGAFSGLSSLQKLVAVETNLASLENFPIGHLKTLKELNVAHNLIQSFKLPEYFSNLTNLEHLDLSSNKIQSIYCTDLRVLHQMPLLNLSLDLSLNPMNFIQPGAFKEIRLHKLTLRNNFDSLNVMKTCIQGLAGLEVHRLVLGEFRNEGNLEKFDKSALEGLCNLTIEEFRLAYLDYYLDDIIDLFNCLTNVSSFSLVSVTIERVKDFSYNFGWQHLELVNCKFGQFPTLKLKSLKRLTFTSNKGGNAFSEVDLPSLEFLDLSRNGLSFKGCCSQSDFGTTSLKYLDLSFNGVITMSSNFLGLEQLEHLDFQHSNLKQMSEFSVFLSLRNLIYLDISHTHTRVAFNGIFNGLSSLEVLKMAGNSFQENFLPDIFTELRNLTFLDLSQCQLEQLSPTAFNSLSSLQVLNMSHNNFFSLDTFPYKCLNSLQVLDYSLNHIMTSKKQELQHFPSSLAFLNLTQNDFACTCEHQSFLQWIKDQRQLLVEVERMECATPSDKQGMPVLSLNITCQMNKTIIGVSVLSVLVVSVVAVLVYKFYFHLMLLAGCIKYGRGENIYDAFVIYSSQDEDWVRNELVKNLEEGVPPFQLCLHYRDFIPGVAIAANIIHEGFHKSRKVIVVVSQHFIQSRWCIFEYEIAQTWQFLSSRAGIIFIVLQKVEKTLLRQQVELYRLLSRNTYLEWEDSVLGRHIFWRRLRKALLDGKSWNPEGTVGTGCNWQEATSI
Toll-like receptor 5 (Homo sapiens), sequence (O60602 whole entry): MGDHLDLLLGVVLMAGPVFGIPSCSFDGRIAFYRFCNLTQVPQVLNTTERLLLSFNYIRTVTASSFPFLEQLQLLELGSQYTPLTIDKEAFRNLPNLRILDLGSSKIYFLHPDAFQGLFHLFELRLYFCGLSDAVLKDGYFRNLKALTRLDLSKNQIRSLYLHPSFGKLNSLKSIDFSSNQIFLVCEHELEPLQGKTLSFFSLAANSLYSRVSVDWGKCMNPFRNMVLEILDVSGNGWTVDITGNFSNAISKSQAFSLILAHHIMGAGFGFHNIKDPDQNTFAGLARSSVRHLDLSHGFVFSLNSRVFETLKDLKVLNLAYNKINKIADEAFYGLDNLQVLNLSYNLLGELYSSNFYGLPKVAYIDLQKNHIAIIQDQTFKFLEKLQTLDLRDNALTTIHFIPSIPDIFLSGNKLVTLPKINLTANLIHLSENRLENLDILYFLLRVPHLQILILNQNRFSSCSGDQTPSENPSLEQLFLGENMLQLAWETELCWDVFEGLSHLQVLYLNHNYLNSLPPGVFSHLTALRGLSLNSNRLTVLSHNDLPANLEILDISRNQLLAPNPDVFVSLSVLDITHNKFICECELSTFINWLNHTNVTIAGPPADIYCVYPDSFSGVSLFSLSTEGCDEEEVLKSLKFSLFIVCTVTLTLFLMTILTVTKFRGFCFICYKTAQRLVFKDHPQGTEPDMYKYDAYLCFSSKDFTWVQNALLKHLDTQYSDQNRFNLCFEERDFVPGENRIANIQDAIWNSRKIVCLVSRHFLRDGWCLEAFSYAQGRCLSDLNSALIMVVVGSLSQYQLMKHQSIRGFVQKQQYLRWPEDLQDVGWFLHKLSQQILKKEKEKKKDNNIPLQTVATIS

- Activity (TLR2/TLR6 (Homo sapiens)): inactive
- Activity (Toll-like receptor 4): Active
- Activity [2]: inactive
- Activity [6]: inactive
Compound: COc1cc([C@@H]2[C@@H](C)[C@H]3[C@@H]2c2c(c4ccccc4[nH]c2=O)OC3(C)C)cc(OC)c1OC
- CC50 [1]: > 33 µM
- Activity (PBMC [3]): Active
- Activity (PBMC [4]): Active
- inhibition (PBMC [5]): Active
